How the values were obtained:
[1] = Surface tension and critical micelle concentration of aqueous surfactant solutions; format: physicochemical; conditions: deionized water; for Surf. Tens.: at the CMC
Experimental: Critical Micelle Concentration (CMC): The critical micelle concentration is defined as the concentration at which further surface tension is no longer lowered with increasing levels of surfactant. To determine CMC, surface tension is measured as a function of surfactant concentration using a K-12 Processor Tensiometer in conjunction with a 665 Dosimat automatic surfactant injection device (also commercially available from Kruss GmbH). Surface tension is then plotted vs. log concentration and the data points are connected. The resulting curve has a nearly horizontal flat portion at concentrations above the CMC and has a negative steep slope at concentrations below the CMC. The CMC is defined as the lowest surfactant concentration in the horizontal flat portion of the curve.
(§1) Then the critical micelle concentration (CMC) was determined for each surfactant.
as §1

[2] = Thermogravimetric analysis of neat perfluorocarboxylate salts; format: physicochemical; conditions: neat salt, nitrogen, 10° C./min
Source text: Thermal degradation measurements were made on a series of neat perfluorocarboxylate salts, including several α-branched open chain structures (Examples N2-N9), a primarily linear open chain structure (Example N10-Fluorad™ FC-143 Fluorochemical Surfactant, commercially available from 3M Company, St. Paul, Minn.), and a closed chain (i.e., cyclic) structure (Example N11--made by the electrochemical fluorination of benzoic acid and hydrolysis in the presence of KOH, as described in U.S. Pat. No. 2,567,011 (Diesslin et al.)).
The perfluorocarboxylate salts were tested using a Perkin-Elmer TGA 7 thermogravimetric analysis apparatus and a salt sample size of approximately 5 mg, a heating rate of 10° C./min, and a nitrogen gas flow rate of 40-45 mL/min. Using the TGA 7 software, the following temperatures were recorded: (1) the onset temperature of decomposition, (2) the temperature at which 50% of the sample weight was lost, and (3) the temperature at which 90% of the sample weight was lost.

Compound	Surf. Tens. ([1]; Table 5) [dynes/cm]	CMC ([1]; Table 5) [ppm]	Surf. Tens. ([1]; Table 3) [dynes/cm]	CMC ([1]; Table 3) [ppm]	further results
O=C(O)C(F)(C(F)(F)F)C(F)(F)C(F)(F)C(F)(F)C(F)(F)C(F)(F)C(F)(F)C(F)(F)C(F)(F)F (centres unmarked) [Example M17, C8 F17 CF(CF3)COO^- H4 N^+]	14.7	2300			Temperature for: 50% loss [2]: 162 °C; Temperature for: 90% loss [2]: 184 °C; Temperature for: Onset [2]: 142 °C
C[N+](C)(CCO)CCCNC(=O)C(F)(C(F)(F)F)C(F)(F)C(F)(F)C(F)(F)C(F)(F)C(F)(F)C(F)(F)C(F)(F)F (centres unmarked) [Example F4]			19.0	300	
O=C(O)C(F)(C(F)(F)F)C(F)(F)C(F)(F)C(F)(F)C(F)(F)C(F)(F)F (centres unmarked) [Example M15, C5 F11 CF(CF3)COO^- H4 N^+]	22.1	> 10000			Temperature for: 50% loss ([2]; listed as N2): 178 °C; Temperature for: 90% loss ([2]; listed as N2): 188 °C; Temperature for: Onset ([2]; listed as N2): 166 °C
O=C(O)C(F)(C(F)(F)F)C(F)(F)C(F)(F)C(F)(F)C(F)(F)C(F)(F)C(F)(F)C(F)(F)F (centres unmarked) [Example M27, C7 F15 CF(CF3)COO^- Li^+]	24.1	3500			
O=C(O)C(F)(C(F)(F)F)C(F)(F)C(F)(F)C(F)(F)C(F)(F)C(F)(F)C(F)(F)C(F)(F)F (centres unmarked) [Example M26, C7 F15 CF(CF3)COO^- Na^+]	19.4	3000			
C[n+]1ccc(C(=O)NCCOC(=O)C(F)(C(F)(F)F)C(F)(F)C(F)(F)C(F)(F)C(F)(F)C(F)(F)C(F)(F)F)cc1 (centres unmarked) [Example F2]			15.5	30	
O=C(O)C(F)(C(F)(F)F)C(F)(F)C(F)(F)C(F)(F)C(F)(F)C(F)(F)F (centres unmarked) [Example M28, C5 F11 CF(CF3)COO^- Na^+]					Temperature for: 50% loss ([2]; listed as N8): 250 °C; Temperature for: 90% loss ([2]; listed as N8): 263 °C; Temperature for: Onset ([2]; listed as N8): 236 °C
O=C(NCCOC(=O)C(F)(C(F)(F)F)C(F)(F)C(F)(F)C(F)(F)C(F)(F)C(F)(F)C(F)(F)F)c1cc[n+]([O-])cc1 (centres unmarked) [Example E11]			15.5	1000	
C6 F13 CF(CF3)CON(C3 H6 SO3^-)(CH2)3 N^+ (CH3)2 H [Example K2]			20.3	500	
C[N+](C)([O-])CCCNC(=O)C(F)(C(F)(F)F)C(F)(F)C(F)(F)C(F)(F)C(F)(F)C(F)(F)C(F)(F)F (centres unmarked) [Example E3, C6 F13 CF(CF3)CONH(CH2)3 N^+ (CH3)2 O^-]			16.6	100	
C[N+](C)([O-])CCCNC(=O)C(F)(C(F)(F)F)C(F)(F)C(F)(F)C(F)(F)C(F)(F)C(F)(F)C(F)(F)C(F)(F)C(F)(F)C(F)(F)C(F)(F)F (centres unmarked) [Example E5, C10 F21 CF(CF3)CONH(CH2)3 N^+ (CH3)2 O^-]			17.1	500	
C[N+](C)([O-])CCCNC(=O)C(F)(C(F)(F)F)C(F)(F)C(F)(F)C(F)(F)C(F)(F)C(F)(F)C(F)(F)C(F)(F)F (centres unmarked) [Example E1, C7 F15 CF(CF3)CONH(CH2)3 N^+ (CH3)2 O^-]			16.3	20	
C[N+](C)(CCCNC(=O)C(F)(C(F)(F)F)C(F)(F)C(F)(F)C(F)(F)C(F)(F)C(F)(F)C(F)(F)C(F)(F)F)CCC(=O)[O-] (centres unmarked) [Example K1, C7 F15 CF(CF3)CONH(CH2)3 N^+ (CH3)2C2 H4 COO^-]			16.6	125	
C[N+](C)(CCCN(CCC[N+](C)(C)CCC(=O)[O-])C(=O)C(F)(C(F)(F)F)C(F)(F)C(F)(F)C(F)(F)C(F)(F)C(F)(F)C(F)(F)C(F)(F)F)CCC(=O)[O-] (centres unmarked) [Example K4]			23.6	100	
O=C([O-])CC[N+]1(CCCNC(=O)C(F)(C(F)(F)F)C(F)(F)C(F)(F)C(F)(F)C(F)(F)C(F)(F)C(F)(F)C(F)(F)F)CCOCC1 (centres unmarked) [Example K3]			19.2		
O=C(O)C(F)(C(F)(F)F)C(F)(F)C(F)(F)C(F)(F)C(F)(F)C(F)(F)C(F)(F)C(F)(F)F (centres unmarked) [Example M30, C7 F15 CF(CF3)COO^- 1/2[H3 N^+ C2 H4 NHC2 H4 N^+ H3]]	16.2	3000			
O=C(NCCC[N+]1(CCO)CCOCC1)C(F)(C(F)(F)F)C(F)(F)C(F)(F)C(F)(F)C(F)(F)C(F)(F)C(F)(F)C(F)(F)F (centres unmarked) [Example F5]			20.8		
O=C(O)C(F)(C(F)(F)F)C(F)(F)C(F)(F)C(F)(F)C(F)(F)C(F)(F)C(F)(F)C(F)(F)C(F)(F)C(F)(F)C(F)(F)F (centres unmarked) [Example M18, C10 F21 CF(CF3)COO^- H4 N^+]	14.8	600			Temperature for: 50% loss [2]: 181 °C; Temperature for: 90% loss [2]: 188 °C; Temperature for: Onset [2]: 164 °C

Compound	Surf. Tens. ([1]; Table 5) [dynes/cm]	CMC ([1]; Table 5) [ppm]	Surf. Tens. ([1]; Table 3) [dynes/cm]	CMC ([1]; Table 3) [ppm]	further results
C8 F17 CF(CF3)CO(OCH2 CH2)16 OCH3 [Example J1]			22	150	
CN(C)CCCN(CCCN(C)C)C(=O)C(F)(C(F)(F)F)C(F)(F)C(F)(F)C(F)(F)C(F)(F)C(F)(F)C(F)(F)C(F)(F)F (centres unmarked) [Example F9, C7 F15 CF(CF3)CON[C3 H6 N^+ (CH3)2 H]2 2[-OOCCH3]]			22.0	1000	
C[N+](C)(CCO)CCCNC(=O)C(F)(C(F)(F)F)C(F)(F)C(F)(F)C(F)(F)C(F)(F)C(F)(F)F (centres unmarked) [Example F3]			17.0	1000	
O=C(O)C(F)(C(F)(F)F)C(F)(F)C(F)(F)C(F)(F)C(F)(F)C(F)(F)C(F)(F)C(F)(F)C(F)(F)F (centres unmarked) [Example M24, C8 F17 CF(CF3)COO^- K^+]	16.4	3000			
C[n+]1ccc(C(=O)NCCOC(=O)C(F)(C(F)(F)F)C(F)(F)C(F)(F)C(F)(F)C(F)(F)C(F)(F)C(F)(F)C(F)(F)F)cc1 (centres unmarked) [Example F1]			15.0	500	
C[N+](C)([O-])CCCNC(=O)C(F)(C(F)(F)F)C(F)(F)C(F)(F)C(F)(F)C(F)(F)C(F)(F)F (centres unmarked) [Example E2, C5 F11 CF(CF3)CONH(CH2)3 N^+ (CH3)2 O^-]			17.5	500	
C[N+](C)([O-])CCCN(CCO)C(=O)C(F)(C(F)(F)F)C(F)(F)C(F)(F)C(F)(F)C(F)(F)C(F)(F)C(F)(F)C(F)(F)F (centres unmarked) [Example E8, C7 F15 CF(CF3)CON(C2 H4 OH)(CH2)3 N^+ (CH3)2 O^-]			16.6	125	
O=C(NCCOC(=O)C(F)(C(F)(F)F)C(F)(F)C(F)(F)C(F)(F)C(F)(F)C(F)(F)C(F)(F)C(F)(F)F)c1cc[n+]([O-])cc1 (centres unmarked) [Example E10]			14.5	400	
O=C(O)C(F)(C(F)(F)F)C(F)(F)C(F)(F)C(F)(F)C(F)(F)C(F)(F)C(F)(F)C(F)(F)F (centres unmarked) [Example M23, C7 F15 CF(CF3)COO^- K^+]	15.0	2500			
O=C(OCCc1cccc[n+]1[O-])C(F)(C(F)(F)F)C(F)(F)C(F)(F)C(F)(F)C(F)(F)C(F)(F)C(F)(F)F (centres unmarked) [Example E12]			18.3	8000	
O=C(OCCc1cccc[n+]1[O-])C(F)(C(F)(F)F)C(F)(F)C(F)(F)C(F)(F)C(F)(F)C(F)(F)C(F)(F)C(F)(F)F (centres unmarked) [Example E13]			15.0	6000	
O=C(O)C(F)(C(F)(F)F)C(F)(F)C(F)(F)C(F)(F)C(F)(F)C(F)(F)C(F)(F)C(F)(F)F (centres unmarked) [Example M20, C7 F15 CF(CF3)COO^- H3 N^+ C2 H4 OH]	15.0	500			
O=C(O)C(F)(C(F)(F)F)C(F)(F)C(F)(F)C(F)(F)C(F)(F)C(F)(F)C(F)(F)F (centres unmarked) [Example M25, C6 F13 CF(CF3)COO^- Na^+]	19.8	10000			
C[N+](C)([O-])CCCNC(=O)C(F)(C(F)(F)F)C(F)(F)C(F)(F)C(F)(F)C(F)(F)C(F)(F)C(F)(F)C(F)(F)C(F)(F)F (centres unmarked) [Example E4, C8 F17 CF(CF3)CONH(CH2)3 N^+ (CH3)2 O^-]			16.5	20	
O=C(O)C(F)(C(F)(F)F)C(F)(F)C(F)(F)C(F)(F)C(F)(F)C(F)(F)C(F)(F)F (centres unmarked) [Example M22, C6 F13 CF(CF3)COO^- K^+]	17.5	10000			
O=C(O)C(F)(C(F)(F)C(F)(F)F)C(F)(F)C(F)(F)C(F)(F)C(F)(F)C(F)(F)C(F)(F)F (centres unmarked) [Example M19, C6 F13 CF(C2 F5)COO^- H4 N^+]					Temperature for: 50% loss [2]: 171 °C; Temperature for: 90% loss [2]: 188 °C; Temperature for: Onset [2]: 153 °C
O=C(O)C1(F)C(F)(F)C(F)(F)C(F)(F)C(F)(F)C1(F)F [U.S. Pat. No. 2,567,011, reference compound]					Temperature for: 50% loss [2]: 110 °C; Temperature for: 90% loss [2]: 120 °C; Temperature for: Onset [2]: 100 °C

From US5998521A, “Aqueous fluoropolymer compositions and method of preparing the same” (3M Innovative Properties Company, priority 1996, dated 1999)
